Patent US7273848B2, “Apolipoprotein A-I agonists and their use to treat dyslipidemic disorders” (priority 1997, dated 2007)
No end group written: not given here.

What was measured:
[1] = Circular dichroism helicity determination; format: physicochemical; settings: percent helicity; for He (%) TFE: 5 μM peptide, 90% vol TFE; for He (%) free: unbound peptide 5 μM in 5 mM phosphate buffer, pH 7.4, 37° C.; for He (%) mics: peptide-micelle complexes, Ri=100, 37° C.
Procedure, shortened: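 Far-UV CD (190–260 nm) at 37° C on 5 μM peptide in 5 mM phosphate pH 7.4, free, with EPC:Chol 20:1 SUVs (Ri 30 or 50), lysophosphatidylcholine micelles (Ri 100) or 90% TFE. Spectra converted to molar ellipticity per residue; helicity from 222 nm ellipticity or CONTIN fitting to reference spectra, ±5%.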

[2] = target: T1, LCAT (purified from human plasma) (Homo sapiens, UniProt P04180); experiment: LCAT activation assay; format: biochemical; settings: LCAT activation as compared with native human ApoA-I (= 100%), equivalent masses
T1 construct: from tissue; host or cells: human plasma
T1 sequence (P04180 25-440): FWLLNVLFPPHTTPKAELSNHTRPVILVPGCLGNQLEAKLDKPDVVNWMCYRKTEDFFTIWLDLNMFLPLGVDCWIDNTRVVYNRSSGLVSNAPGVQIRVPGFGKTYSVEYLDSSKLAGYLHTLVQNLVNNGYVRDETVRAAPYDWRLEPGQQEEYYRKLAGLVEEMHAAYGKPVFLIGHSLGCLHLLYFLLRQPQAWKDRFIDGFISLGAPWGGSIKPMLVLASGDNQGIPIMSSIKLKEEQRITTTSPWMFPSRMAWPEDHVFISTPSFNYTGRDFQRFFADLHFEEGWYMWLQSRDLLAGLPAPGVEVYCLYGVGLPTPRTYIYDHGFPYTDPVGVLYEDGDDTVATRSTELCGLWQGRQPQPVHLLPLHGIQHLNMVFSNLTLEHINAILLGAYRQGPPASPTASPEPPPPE
Procedure, shortened: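 Activity was expressed as percentage conversion of radiolabelled cholesterol to cholesteryl ester, normalised to native ApoA-I as 100%. LCAT purified from human plasma was added to peptide-preincubated EPC or POPC/cholesterol (20:1) small unilamellar vesicles at pH 7.4. Specific activity is the peptide concentration reaching the conversion plateau at a fixed timepoint.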

Sequence | He (%) TFE ([1]; 37° C.) [%] | He (%) free [1] [%] | He (%) SUVs ([1]; peptide-SUV complexes (20:1 EPC:Chol., Ri=30 and Ri=50), 37° C.) [%] | He (%) mics [1] [%] | ACTIVITY (%) LCAT [2] [%]
PVLELFENLLERLLDALQKKLK [peptide 146] | 95 | 97 | 100 | 100 | 86
PVLELFENLWERLLDALQKKLK [peptide 149] | 47 | 28 |  | 54 | 63
